Laboratory results reported in patent publication US20250129430A1, “HIGH ATP-AFFINITY PROTEIN AS THERAPEUTIC TARGET FOR INTRACTABLE CANCER MOLECULAR SUBTYPES AND INHIBITOR THEREOF” (VeraVerse Co., Ltd., priority 2021, published 2025).
Counter-ions that a name gives are not always drawn.

Experiments:
Experiment in all cases: Cell viability drug screen, 12-point dose-response AUC
Assay type in all cases: cell-based, human
FU97 = system: FU97; parameters: Average Area Under the Viability Curve (AUC), AUC norm value: scale not given here; settings: FU97 cells; 72 hours
Procedure, shortened: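 Trapezoidal AUC of a 12-point, DMSO-normalized dose-response curve. Luminescent viability was measured after 72 h of exposure at 37° C to half-log serial dilutions (0.5% DMSO control), dosed 24 h after plating FU97 cells at 5×10^3 per well.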

YCC11 = YCC11 cells (SEM subtype); 72 hours
Procedure, shortened: (§1)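 Twelve half-log concentrations per compound were tested on gastric cancer cells with an EMT phenotype (5×10^3/well, dosed 24 h post-seeding). Viability after 72 h was quantified via luminescence relative to 0.5% DMSO, and repeats were averaged.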

SNU620 = SNU620 cells; 72 hours
Procedure, shortened: as §1

AGS = AGS cells (non-SEM subtype); 72 hours
Procedure, shortened: (§2)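 Each cell line receives a twelve-point half-log titration of drug beginning 24 h after plating 5×10^3 cells per well. Following 72 h culture at 37 °C, luminescent signal is recorded and expressed versus vehicle. AUC is derived by the trapezoidal method.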

YCC2 = YCC2 cells; 72 hours
Procedure, shortened: as §1

SNU484 = SNU484 cells (SEM subtype); 72 hours
Procedure, shortened: as §1

SNU638 = SNU638 cells; 72 hours
Procedure, shortened: as §1

MKN74 = MKN74 cells; 72 hours
Procedure, shortened: as §2

KATO3 = KATO3 cells; 72 hours
Procedure, shortened: as §1

SNU668 = SNU668 cells (SEM subtype); 72 hours
Procedure, shortened: as §1

SK4 = SK4 cells (SEM subtype); 72 hours
Procedure, shortened: as §1

SNU601 = SNU601 cells; 72 hours
Procedure, shortened: as §1

NCC24 = NCC24 cells; 72 hours
Procedure, shortened: as §1

NCC20 = NCC20 cells; 72 hours
Procedure, shortened: as §1

OCUM1 = OCUM1 cells; 72 hours
Procedure, shortened: as §1

NCI_N87 = NCI_N87 cells; 72 hours
Procedure, shortened: as §1

Hs746T = Hs746T cells (SEM subtype); 72 hours
Procedure, shortened: as §1

MKN1 = MKN1 cells; 72 hours
Procedure, shortened: as §1

SNU1750 = SNU1750 cells (SEM subtype); 72 hours
Procedure, shortened: as §1

SNU1967 = SNU1967 cells; 72 hours
Procedure, shortened: as §1

YCC3 = YCC3 cells; 72 hours
Procedure, shortened: as §1

NCC19 = NCC19 cells; 72 hours
Procedure, shortened: as §1

SNU16 = SNU16 cells; 72 hours
Procedure, shortened: as §1

MKN28 = MKN28 cells; 72 hours
Procedure, shortened: as §1

SNU216 = SNU216 cells (non-SEM subtype); 72 hours
Procedure, shortened: as §2

SNU1 = SNU1 cells; 72 hours
Procedure, shortened: as §1

SNU719 = SNU719 cells; 72 hours
Procedure, shortened: as §2

NCC59 = NCC59 cells; 72 hours
Procedure, shortened: as §1

MKN45 = MKN45 cells (non-SEM subtype); 72 hours
Procedure, shortened: as §2

Row | Structure (SMILES) | Average Area Under the Viability Curve (AUC), AUC norm value (FU97) | Average Area Under the Viability Curve (AUC), AUC norm value (YCC11) | Average Area Under the Viability Curve (AUC), AUC norm value (SNU620) | Average Area Under the Viability Curve (AUC), AUC norm value (AGS) | Average Area Under the Viability Curve (AUC), AUC norm value (YCC2) | Average Area Under the Viability Curve (AUC), AUC norm value (SNU484) | Average Area Under the Viability Curve (AUC), AUC norm value (SNU638) | Average Area Under the Viability Curve (AUC), AUC norm value (MKN74) | Average Area Under the Viability Curve (AUC), AUC norm value (KATO3) | Average Area Under the Viability Curve (AUC), AUC norm value (SNU668) | Average Area Under the Viability Curve (AUC), AUC norm value (SK4) | Average Area Under the Viability Curve (AUC), AUC norm value (SNU601) | Average Area Under the Viability Curve (AUC), AUC norm value (NCC24) | Average Area Under the Viability Curve (AUC), AUC norm value (NCC20) | Average Area Under the Viability Curve (AUC), AUC norm value (OCUM1) | Average Area Under the Viability Curve (AUC), AUC norm value (NCI_N87) | Average Area Under the Viability Curve (AUC), AUC norm value (Hs746T) | Average Area Under the Viability Curve (AUC), AUC norm value (MKN1) | Average Area Under the Viability Curve (AUC), AUC norm value (SNU1750) | Average Area Under the Viability Curve (AUC), AUC norm value (SNU1967) | also measured
1 | COc1cc(N2CCC(N3CCN(C)CC3)CC2)ccc1Nc1ncc(Cl)c(Nc2ccccc2S(=O)(=O)C(C)C)n1 [TAE684 (NVP-TAE684), TAE684] | −1.587 | −1.4836 | 0.4637 | −1.326 | −0.5512 | −0.6182 | 0.4071 | −0.04126 | 0.2672 | 1.009 | −0.6572 | 1.062 | 1.662 | −2.659 | −0.2195 | 2.003 | 1.039 | 0 | −0.941 | −1.412 | Average Area Under the Viability Curve (AUC), AUC norm value (YCC3): 1.708; Average Area Under the Viability Curve (AUC), AUC norm value (NCC19): 1.944; Average Area Under the Viability Curve (AUC), AUC norm value (SNU16): −3.18; Average Area Under the Viability Curve (AUC), AUC norm value (MKN28): −0.4177; Average Area Under the Viability Curve (AUC), AUC norm value (SNU216): 0.5205; Average Area Under the Viability Curve (AUC), AUC norm value (SNU1): −0.1185; Average Area Under the Viability Curve (AUC), AUC norm value (SNU719): 1.051; Average Area Under the Viability Curve (AUC), AUC norm value (NCC59): 1.273; Average Area Under the Viability Curve (AUC), AUC norm value (MKN45): 2.601
2 | COc1cc([C@@H]2c3cc4c(cc3[C@@H](O[C@@H]3O[C@@H]5CO[C@@H](c6cccs6)O[C@H]5[C@H](O)[C@H]3O)[C@H]3COC(=O)[C@H]23)OCO4)cc(OC)c1O [Teniposide (Vumon), Teniposide] | 1.309 | −1.342 | 0 | −2.042 | 0.249 | −1.211 | −0.3584 | 0.3993 | 1.852 | −0.6175 | −0.2681 | −1.094 | −0.5766 | −0.8716 | 1.001 | 2.319 | 0.6261 | −1.955 | −0.5618 | −0.7519 | Average Area Under the Viability Curve (AUC), AUC norm value (YCC3): 2.1949; Average Area Under the Viability Curve (AUC), AUC norm value (NCC19): 2.415; Average Area Under the Viability Curve (AUC), AUC norm value (SNU16): −0.8192; Average Area Under the Viability Curve (AUC), AUC norm value (MKN28): 0.1008; Average Area Under the Viability Curve (AUC), AUC norm value (SNU216): 0.9296; Average Area Under the Viability Curve (AUC), AUC norm value (SNU1): −0.3019; Average Area Under the Viability Curve (AUC), AUC norm value (SNU719): 2.899; Average Area Under the Viability Curve (AUC), AUC norm value (NCC59): 1.59; Average Area Under the Viability Curve (AUC), AUC norm value (MKN45): 1.933
3 | CC(C)(C)c1ccc(C(O)CCCN2CCC(C(O)(c3ccccc3)c3ccccc3)CC2)cc1 (centres unmarked) [Terfenadine] | 1.163 | −0.996 | 0.4918 | −1.278 | 0.4862 | 0.06057 | −0.8091 | −1.589 | 0.4901 | −0.5647 | −0.8713 | 2.641 | −2.355 | −1.029 | 1.032 | 1.465 | −0.3246 | −0.8127 | −0.05758 | −1.065 | Average Area Under the Viability Curve (AUC), AUC norm value (YCC3): 1.423; Average Area Under the Viability Curve (AUC), AUC norm value (NCC19): 3.135; Average Area Under the Viability Curve (AUC), AUC norm value (SNU16): 0; Average Area Under the Viability Curve (AUC), AUC norm value (MKN28): −0.2901; Average Area Under the Viability Curve (AUC), AUC norm value (SNU216): 1.499; Average Area Under the Viability Curve (AUC), AUC norm value (SNU1): 1.34; Average Area Under the Viability Curve (AUC), AUC norm value (SNU719): 1.059; Average Area Under the Viability Curve (AUC), AUC norm value (NCC59): 2.3563; Average Area Under the Viability Curve (AUC), AUC norm value (MKN45): −0.5441
4 | CC[C@@]1(O)C(=O)OCc2c1cc1n(c2=O)Cc2cc3c(CN(C)C)c(O)ccc3nc2-1 [Topotecan HCI, Topotecan HCl] | −0.8445 | −0.573 | −0.7611 | −2.159 | 0.1906 | 1.128 | −0.7133 | 0 | 5.01 | −1.128 | −0.4515 | −0.5589 | 0.0033 | −2.367 | −1.681 | 2.857 | 0.4587 | −0.9954 | 0.2818 | −2.648 | Average Area Under the Viability Curve (AUC), AUC norm value (YCC3): 1.923; Average Area Under the Viability Curve (AUC), AUC norm value (NCC19): 2.896; Average Area Under the Viability Curve (AUC), AUC norm value (SNU16): −0.5292; Average Area Under the Viability Curve (AUC), AUC norm value (MKN28): 1.259; Average Area Under the Viability Curve (AUC), AUC norm value (SNU216): 1.123; Average Area Under the Viability Curve (AUC), AUC norm value (SNU1): −0.6163; Average Area Under the Viability Curve (AUC), AUC norm value (SNU719): 3.069; Average Area Under the Viability Curve (AUC), AUC norm value (NCC59): 1.957; Average Area Under the Viability Curve (AUC), AUC norm value (MKN45): 1.195
